The structures appear in SMILES notation. Calls of active or inactive are those of the source.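 Rule for the calls: active = maximal inhibition of USP17 at or above 30% in the confirmation dose-response, a value not among the printed readouts; inactive = the rest.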 A value given as a limit tells only on which side of the number the result lay.

The target in the experiment is Ubiquitin carboxyl-terminal hydrolase 17-like protein 5 (Homo sapiens) (UniProt A8MUK1). Put plainly: ubiquitin-specific protease 17 inhibitors, concentration series, biochemical, verification of primary actives (AID 1645864). The note with it: purified USP17, ubiquitin-rhodamine cleavage fluorescence, 3 h.
Ubiquitin carboxyl-terminal hydrolase 17-like protein 5 (Homo sapiens), sequence (A8MUK1 whole entry, looked up): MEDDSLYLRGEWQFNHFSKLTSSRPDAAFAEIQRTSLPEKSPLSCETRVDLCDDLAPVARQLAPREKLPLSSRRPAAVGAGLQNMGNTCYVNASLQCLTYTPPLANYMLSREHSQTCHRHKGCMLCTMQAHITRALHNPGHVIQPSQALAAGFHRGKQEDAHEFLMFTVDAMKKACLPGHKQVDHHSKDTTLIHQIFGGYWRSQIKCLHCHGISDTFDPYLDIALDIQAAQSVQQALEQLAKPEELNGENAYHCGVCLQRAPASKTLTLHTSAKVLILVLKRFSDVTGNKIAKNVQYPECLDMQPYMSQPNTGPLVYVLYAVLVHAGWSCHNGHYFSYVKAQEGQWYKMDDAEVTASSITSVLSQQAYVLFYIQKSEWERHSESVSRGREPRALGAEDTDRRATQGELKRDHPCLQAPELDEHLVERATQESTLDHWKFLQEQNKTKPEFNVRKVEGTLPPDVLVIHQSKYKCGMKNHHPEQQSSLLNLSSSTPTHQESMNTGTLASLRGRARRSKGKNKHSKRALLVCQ
`CCc1ccc2[nH]c3c(c(=O)c2c1)CN(CC(=O)NCc1ccc2c(c1)OCO2)CC3`: the IC50 was 28.1 µM.

Consider `Cc1nc(NCc2ccccn2)c2cc(-c3ccccc3)sc2n1`, for which the IC50 is 24.7 µM.

As to `CCc1nc(-c2cc(C(=O)N3CCOCC3)c3ccccn23)cs1`, the IC50 was > 50 µM (inactive).

For the compound `O=C(COc1cccc(-n2cnnn2)c1)Nc1ccc2c(c1)OCCO2`, the IC50 is > 50 µM (inactive).

As for `C/C1=C\CCC(C)C(O)CC(O)C(C)C(O)CCC(C)C(O)CC2(O)OC(CC(OC(=O)CC(=O)O)CC(O)CC(O)CC(O)C(C)C(O)/C=C/C(C)C(C(C)CCCCCCCCN=C(N)N)OC1=O)CC(O)C2O` (stereo not given), the IC50 is > 50 µM (inactive).

In the case of `Cc1cc(CSc2ncccc2C(=O)Nc2ccnn2Cc2cccnc2)no1`, the IC50 is > 50 µM (inactive).

For `O=C(Nc1ccc(F)cc1F)NC1Cc2ccccc2C1`, the IC50 is 28.2 µM.

Regarding `O=S(=O)(c1cccc(F)c1)N1CCN(c2nnnn2-c2ccccc2)CC1`, the IC50 is 40.3 µM.

`O=c1c2ccccc2ncn1C1CCN(S(=O)(=O)c2ccccc2F)CC1`: the IC50 is 28.9 µM.

In the case of `Cc1cc(N2CCN(c3ncccn3)CC2)nc2ccc(NC(=O)c3ccncc3)cc12`, the concentration for half-maximal inhibition (IC50) was 2.99 µM.

On to `COCCn1ccc2nc(C)c(C(=O)Nc3ccc4c(c3)OCCO4)cc2c1=O`, for which the IC50 was 37 µM.

Turning to `COc1ccc(C)cc1NC(=O)C1CC(=O)Nc2nc(SCc3ccccc3)nn21` (stereo not given), the IC50 is 18.9 µM.

Consider `CC1=C(Cn2c3cccc(=O)c-3nc3ccccc32)CCC(C)(C)C1`, for which the IC50 is 1.52 µM.

As to `COc1ccc(OCCn2c(C3CC(=O)N(c4cccc(C)c4)C3)nc3ccccc32)cc1` (stereo not given), the IC50 was 0.391 µM.

Turning to `O=C(c1ccco1)N1CCN=C1SCc1ccccc1F`, the IC50 was > 50 µM (inactive).

`O=C(NCc1ccccc1Cl)c1ccc(-c2nnc(-c3ccccc3)o2)cc1`: the IC50 was 2.5 µM.

For `O=C(NCCc1ccccn1)c1cc(-c2ccc(Br)cc2)n[nH]1`, the IC50 was 17.9 µM.

Consider `COc1ccc(CCNC(=O)CCCCn2c(=O)c3ccccc3n(Cc3cccc(Cl)c3)c2=O)cc1OC`, for which the IC50 was 35.3 µM.

Consider `O=C(COc1cccc2ccc(N3CCC(Cc4ccccc4)CC3)nc12)NCc1ccc(F)cc1`, for which the IC50 is 21.1 µM.

On to `CCOc1ccc(NC(=O)Cn2c(=O)n(CCC(=O)NCc3ccco3)c(=O)c3ccccc32)cc1`, for which the IC50 is 5.43 µM.

On to `CN(C(=O)CSc1nnc(-c2cc3ccccc3n2C)o1)c1ccccc1`, for which the IC50 is > 50 µM (inactive).

With `COc1cc(OC)cc(-c2nc(-c3cn(-c4cccc(F)c4)nn3)no2)c1`, the IC50 is 0.13 µM.

Regarding `CCOc1ccccc1NC(=O)Cn1ccn2nc(-c3ccc(OC)cc3)cc2c1=O`, the IC50 is 6.49 µM.

Take `Cc1cc(N2CCN(c3ncccn3)CC2)nc2ccc(NC(=O)/C=C/c3ccccc3Cl)cc12`: the IC50 is 12.6 µM.

For the compound `Cc1cccc(-n2nc(C)c3c2NC(=O)CC3C(=O)c2cc3ccccc3o2)c1` (stereo not given), the IC50 is 34.1 µM.

Regarding `COc1ccccc1NC(=O)CSC1=NC2(CCCCC2)Nc2ccccc21`, the IC50 is > 50 µM (inactive).

On to `O=C(CSc1nnnn1-c1ccccc1)Nc1ccccc1`, for which the IC50 is 36.8 µM.

Consider `NS(=O)(=O)c1ccc(CNS(=O)(=O)c2ccc(-c3ccccn3)s2)cc1`, for which the IC50 is 23.2 µM.

On to `COCCNC(=O)c1ccn(-c2ccc3ccc(-c4cnn(C)c4)cn23)n1`, for which the IC50 is > 50 µM (inactive).

In the case of `CNC(=O)c1cc2c(=O)n3cccc(C)c3nc2n1Cc1ccccc1`, the IC50 is 2.36 µM.

Turning to `Cc1ccc(Nc2nc(Nc3cccc(Cl)c3)nc3nccnc23)cc1`, the IC50 is > 50 µM (inactive).

For `O=C(CN1CCCCC1)Nc1nnc(-c2ccc([N+](=O)[O-])cc2)s1`, the IC50 is 19.9 µM.

`Cc1cccc(C(=O)N2CCc3cc(-c4nc(NC(=O)CN5CCc6ccccc6C5)sc4C)ccc32)c1`: the IC50 was > 50 µM (inactive).

On to `O=C(Cc1ccc(Cl)c(Cl)c1)OCC(=O)c1c[nH]c2ccccc12`, for which the IC50 was > 50 µM (inactive).

In the case of `CC1Oc2ccccc2C(=O)N(Cc2ccc([N+](=O)[O-])cc2)C1=O` (stereo not given), the IC50 was > 50 µM (inactive).

In general, IC50 refers to the midpoint of a concentration-inhibition curve.

The values are drawn from PubChem BioAssay AID1645864 (Buhrlage Lab, Dana-Farber Cancer Institute and Novartis …, 2021).
